# Article PMC8795149, “Characterization of a novel non-steroidal glucocorticoid receptor agonist optimized for topical treatment” (Scientific Reports, 2022)
# Legend:
# [1] = test system: HPA axis; parameters: method as in PMID 3553247; conditions: topical; cited from earlier work
# [2] = In vivo pharmacokinetics in dog, i.v.
# Description: (§1) The pharmacokinetic profile of LEO 134310 was determined in rat (male Sprague Dawley) and dog (female Beagle) after intravenous (i.v.) injection at 1 mg/kg. LEO 134310 was administered in isotonic cyclodextrin solution at 0.5 mg/mL (0.1% Citrate buffer pH 4, 20% hydroxy-propyl-β-cyclodextrin in 0.2% NaCl). The i.v. dose was given as a bolus in rats and as a slow injection over 2 min in dogs. The dosing volume was 2 mL/kg. Blood was immediately diluted after sampling in an inhibitory cocktail containing acetylcholinesterase inhibitor Dichlorvos [1 mg/mL in an 8 mg/mL K2EDTA solution in phosphate buffer (PBS)] and samples were stored at − 80 °C until analysis. Samples were analyzed by LC–MS/MS using an API 5500/API 6500 QTRAP mass spectrometer. Pharmacokinetic parameters were derived from a non-compartment model in Phoenix64 (Pharsight, Certara).
# [3] = Predicted clearance and half-life in man by allometric scaling of clearance in dogs; parameters: species or system human
# Description: To evaluate allometric scaling, actual clearance in dog and man were extracted from the literature for 6 ester drugs[27]–[38].
# [4] = In vivo pharmacokinetics in rat, i.v.
# Description: as §1
# [5] = target: T1, recombinant human full-length GR (Homo sapiens, UniProt P04150); assay: GR binding assay (fluorescence polarization); conditions: Fluormone GS1
# T1 construct: 4 nM recombinant human full-length GR (Thermo Fisher); purchased Thermo Fisher
# T1 sequence (P04150 1-777): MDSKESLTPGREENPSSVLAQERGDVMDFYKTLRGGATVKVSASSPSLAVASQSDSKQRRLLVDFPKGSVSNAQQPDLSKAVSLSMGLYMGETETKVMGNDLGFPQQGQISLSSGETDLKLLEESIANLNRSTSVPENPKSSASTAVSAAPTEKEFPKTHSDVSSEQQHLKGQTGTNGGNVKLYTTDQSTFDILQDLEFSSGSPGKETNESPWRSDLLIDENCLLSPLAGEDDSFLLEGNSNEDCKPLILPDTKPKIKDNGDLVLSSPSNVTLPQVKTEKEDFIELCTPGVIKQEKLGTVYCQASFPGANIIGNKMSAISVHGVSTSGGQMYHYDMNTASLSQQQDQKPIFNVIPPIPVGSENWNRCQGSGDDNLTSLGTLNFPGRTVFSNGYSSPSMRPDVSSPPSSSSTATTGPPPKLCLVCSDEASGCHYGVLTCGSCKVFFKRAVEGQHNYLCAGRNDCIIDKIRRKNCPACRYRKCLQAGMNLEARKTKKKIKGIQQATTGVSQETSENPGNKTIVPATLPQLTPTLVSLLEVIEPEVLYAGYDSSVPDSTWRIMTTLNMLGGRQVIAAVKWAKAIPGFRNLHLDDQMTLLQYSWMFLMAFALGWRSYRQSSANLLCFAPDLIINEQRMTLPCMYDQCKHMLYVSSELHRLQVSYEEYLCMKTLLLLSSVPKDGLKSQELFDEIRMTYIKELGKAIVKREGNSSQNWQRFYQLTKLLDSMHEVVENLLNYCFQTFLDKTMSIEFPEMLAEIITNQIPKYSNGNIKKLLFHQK
# Description: Binding of GR agonists to human GR was evaluated in a fluorescence polarization assay. 2.5 nM Fluormone GS1 (Thermo Fisher) and 4 nM recombinant human full-length GR (Thermo Fisher) were incubated in the presence of individual test and control compounds. Changes in polarization values were used to determine the relative affinity of test compounds for the GR.
# [6] = Stability in whole blood (dog); type: in vitro ADME; conditions: 0.1 µM, 37 °C
# Description: (§2) Compounds were incubated in diluted fresh rat, dog, minipig or human whole blood (heparin stabilized, 50% blood and 50% phosphate buffer with 1% bovine serum albumin) for 120 min at 0.1 µM, at 37 °C and the half-lives were determined. Samples were taken at 0, 15, 30, 60 and 120 min, and reactions were terminated by addition of acetonitrile containing analytical internal standard (IS). Test compound depletion was determined using time-of-flight mass spectrometry in positive ion mode (TOF–MS; AB Sciex API5600). Elimination rate constants (k) were calculated from peak areas and the half-lives was determined (t½ = ln2/k).
# [7] = Hepatocyte stability (dog); type: in vitro ADME; conditions: predicted hepatic clearance, well stirred model
# Description: Compounds (1.0 µM) were incubated in duplicates with rat, dog, minipig or human hepatocytes (1.0 million cells/mL) in phosphate buffer, in 96-well plates for 120 min (37 °C). Reactions were stopped by addition of cold acetonitrile, at 0, 10, 30, 60, and 120 min, and dispensed into cold acetonitrile to stop the reactions. Plates were centrifuged for 30 min and samples were analysed using liquid chromatography coupled to a time-of-flight mass spectrometer. Compound depletion over time was used to estimate the elimination rate constant, from which the apparent intrinsic clearance (CLapp), and half-life (t½), were calculated.
# [8] = Stability in whole blood (minipig); type: in vitro ADME; conditions: 0.1 µM, 37 °C
# Description: as §2
SMILES,Effect on morning plasma cortisol [1],In vivo clearance relative to liver blood flow [2] [fold],In vivo clearance ([2]; i.v. 1 mg/kg),In vivo terminal half-life ([2]; i.v. 1 mg/kg),"Predicted clearance in man ([3]; allometric scaling of clearance in dogs, scaling factor 0.75) [mL/min/kg]",Predicted half-life in man ([3]; corresponding to predicted clearance) [min],In vivo clearance relative to liver blood flow [4] [fold],In vivo clearance ([4]; i.v. 1 mg/kg),In vivo terminal half-life ([4]; i.v. 1 mg/kg),EC50 [5] [nM],In vitro (blood) half-life [6],In vitro (hepatocytes) CLH [7],In vitro (blood) half-life [8]
"CCC(=O)O[C@]1(C(=O)CCl)[C@@H](C)C[C@H]2[C@@H]3CCC4=CC(=O)C=C[C@]4(C)[C@@]3(F)[C@@H](O)C[C@@]21C [CP, Clobetasol Propionate]",reduce morning plasma cortisol significantly,–,–,–,–,–,–,–,–,–,–,–,–
C[C@H](NC(=O)[C@H]1CCCO1)[C@H](Oc1ccc(C(=O)O[C@H]2CCCN(C(=O)[C@H]3COC(=O)C3)C2)cc1)c1ccc(C2CC2)cc1 [LEO 134310],–,15,470 ± 97 (n = 3) mL/min/kg,11 ± 1.2 (n = 3) min,300,< 5,5,360 ± 85 (n = 3) mL/min/kg,190 ± 171 (n = 3) min,14,3.3 ± 2.1 (n = 5) min,> 30 (n = 1) mL/min/kg,3.8 (n = 1) min
